According to the supplement of paper PMC10307832:

Experiments:
Experiment in all cases: relative viability (nuclei count vs DMSO), 5 days (fraction); higher = more cells survive
[1] = test system: NCI-H1650
Summary of the method: (§1)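 Lung cancer cell lines, seeded in 1536-well plates, were treated the following day by pin tool with a single drug or with five library-drug doses (not always all listed) in √10 steps on top of a fixed anchor-drug dose. Cells were fixed and nuclei stained in one step after 5 days, and nuclei were counted. Relative viability is the nuclei count for treated wells divided by that for vehicle wells, reported as medians of duplicate plates.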

[2] = test system: EKVX
Summary of the method: as §1

[3] = test system: BEN
Summary of the method: as §1

[4] = test system: HARA
Summary of the method: as §1

[5] = test system: NCI-H838
Summary of the method: as §1

[6] = test system: A-427
Summary of the method: as §1

[7] = test system: NCI-H1792
Summary of the method: as §1

[8] = test system: NCI-H650
Summary of the method: as §1

[9] = test system: HCC-44
Summary of the method: as §1

[10] = test system: NCI-H596
Summary of the method: as §1

[11] = test system: SK-MES-1
Summary of the method: as §1

[12] = test system: NCI-H358
Summary of the method: as §1

[13] = test system: NCI-H1437
Summary of the method: as §1

[14] = test system: NCI-H23
Summary of the method: as §1

[15] = test system: COR-L23
Summary of the method: as §1

[16] = test system: HCC-15
Summary of the method: as §1

[17] = test system: 201T
Summary of the method: as §1

[18] = test system: NCI-H1975
Summary of the method: as §1

[19] = test system: HCC-827
Summary of the method: as §1

Cc1sc2c(c1C)C(c1ccc(Cl)cc1)=N[C@@H](CC(=O)OC(C)(C)C)c1nnc(C)n1-2 [JQ1] + CS(=O)(=O)CCNCc1ccc(-c2ccc3ncnc(Nc4ccc(OCc5cccc(F)c5)c(Cl)c4)c3c2)o1 [Lapatinib] (partner 2 µM) gave a relative viability ([1]; first compound 0.04 µM) of 0.704, a relative viability ([1]; first compound 0.1265 µM) of 0.469 and a relative viability ([1]; first compound 0.4 µM) of 0.316. The relative viability ([1]; first compound 1.265 µM) was 0.204, the relative viability ([1]; first compound 4 µM) was 0.253 and the relative viability ([2]; first compound 0.04 µM) was 0.256. For the same compound, the relative viability ([2]; first compound 0.1265 µM) was 0.269, the relative viability ([2]; first compound 0.4 µM) was 0.244 and the relative viability ([2]; first compound 1.265 µM) was 0.226. It also gave a relative viability ([2]; first compound 4 µM) of 0.141, a relative viability ([3]; first compound 0.04 µM) of 0.676 and a relative viability ([3]; first compound 0.1265 µM) of 0.561. For the same compound, the relative viability ([3]; first compound 0.4 µM) was 0.427, the relative viability ([3]; first compound 1.265 µM) was 0.292 and the relative viability ([3]; first compound 4 µM) was 0.266. For the same compound, the relative viability ([4]; first compound 0.04 µM) was 0.871, the relative viability ([4]; first compound 0.1265 µM) was 0.559 and the relative viability ([4]; first compound 0.4 µM) was 0.642. The relative viability ([4]; first compound 1.265 µM) was 0.317, the relative viability ([4]; first compound 4 µM) was 0.165 and the relative viability ([5]; first compound 0.04 µM) was 0.991. For the same compound, the relative viability ([5]; first compound 0.1265 µM) was 0.462, the relative viability ([5]; first compound 0.4 µM) was 0.454 and the relative viability ([5]; first compound 1.265 µM) was 0.237. For the same compound, the relative viability ([5]; first compound 4 µM) was 0.191, the relative viability ([6]; first compound 0.04 µM) was 0.925 and the relative viability ([6]; first compound 0.1265 µM) was 0.916. For the same compound, the relative viability ([6]; first compound 0.4 µM) was 1.08, the relative viability ([6]; first compound 1.265 µM) was 1.02 and the relative viability ([6]; first compound 4 µM) was 0.696. For the same compound, the relative viability ([7]; first compound 0.04 µM) was 0.947, the relative viability ([7]; first compound 0.4 µM) was 0.916 and the relative viability ([7]; first compound 1.265 µM) was 0.896. For the same compound, the relative viability ([7]; first compound 4 µM) was 0.688, the relative viability ([8]; first compound 0.04 µM) was 0.959 and the relative viability ([8]; first compound 0.1265 µM) was 0.527. It also gave a relative viability ([8]; first compound 0.4 µM) of 0.647, a relative viability ([8]; first compound 1.265 µM) of 0.259 and a relative viability ([8]; first compound 4 µM) of 0.295. The relative viability ([9]; first compound 0.04 µM) was 1.07, the relative viability ([9]; first compound 0.1265 µM) was 0.849 and the relative viability ([9]; first compound 0.4 µM) was 0.795. The relative viability ([9]; first compound 1.265 µM) was 0.488, the relative viability ([9]; first compound 4 µM) was 0.532 and the relative viability ([10]; first compound 0.04 µM) was 1.07. The relative viability ([10]; first compound 0.1265 µM) was 0.956, the relative viability ([10]; first compound 0.4 µM) was 0.887 and the relative viability ([10]; first compound 1.265 µM) was 0.546. For the same compound, the relative viability ([10]; first compound 4 µM) was 0.415, the relative viability ([11]; first compound 0.04 µM) was 0.455 and the relative viability ([11]; first compound 0.1265 µM) was 0.436. The relative viability ([11]; first compound 0.4 µM) was 0.361, the relative viability ([11]; first compound 1.265 µM) was 0.292 and the relative viability ([11]; first compound 4 µM) was 0.274. For the same compound, the relative viability ([12]; first compound 0.04 µM) was 0.467, the relative viability ([12]; first compound 0.1265 µM) was 0.494 and the relative viability ([12]; first compound 0.4 µM) was 0.647. The relative viability ([12]; first compound 1.265 µM) was 0.561, the relative viability ([12]; first compound 4 µM) was 0.577 and the relative viability ([13]; first compound 0.04 µM) was 0.72. The relative viability ([13]; first compound 0.1265 µM) was 0.463, the relative viability ([13]; first compound 0.4 µM) was 0.403 and the relative viability ([13]; first compound 1.265 µM) was 0.194. The relative viability ([13]; first compound 4 µM) was 0.216, the relative viability ([14]; first compound 0.04 µM) was 0.956 and the relative viability ([14]; first compound 0.1265 µM) was 0.943. It also gave a relative viability ([14]; first compound 0.4 µM) of 1.09, a relative viability ([14]; first compound 1.265 µM) of 0.301 and a relative viability ([14]; first compound 4 µM) of 0.362. For the same compound, the relative viability ([15]; first compound 0.04 µM) was 0.926, the relative viability ([15]; first compound 0.1265 µM) was 0.782 and the relative viability ([15]; first compound 0.4 µM) was 0.942. It also gave a relative viability ([15]; first compound 1.265 µM) of 0.773, a relative viability ([15]; first compound 4 µM) of 0.623 and a relative viability ([16]; first compound 0.04 µM) of 0.778. It also gave a relative viability ([16]; first compound 0.4 µM) of 0.85, a relative viability ([16]; first compound 1.265 µM) of 0.655 and a relative viability ([16]; first compound 4 µM) of 0.592. It also gave a relative viability ([17]; first compound 0.04 µM) of 0.998, a relative viability ([17]; first compound 0.1265 µM) of 0.51 and a relative viability ([17]; first compound 0.4 µM) of 0.974. The relative viability ([17]; first compound 1.265 µM) was 0.724, the relative viability ([17]; first compound 4 µM) was 0.548 and the relative viability ([18]; first compound 0.04 µM) was 0.85. The relative viability ([18]; first compound 0.1265 µM) was 0.551, the relative viability ([18]; first compound 0.4 µM) was 0.565 and the relative viability ([18]; first compound 1.265 µM) was 0.351. For the same compound, the relative viability ([18]; first compound 4 µM) was 0.333, the relative viability ([19]; first compound 0.04 µM) was 0.206 and the relative viability ([19]; first compound 0.4 µM) was 0.21. It also gave a relative viability ([19]; first compound 1.265 µM) of 0.189 and a relative viability ([19]; first compound 4 µM) of 0.202.
